Experimental data as given in ChEMBL document CHEMBL1201862, “PubChem BioAssay data set” (2004).
Active and inactive are the calls of the source.

Columns and labels:
[1] = target: Beta-adrenergic receptor kinase 1 (Homo sapiens, UniProt P25098); experiment: aptamer displacement from bead-bound GRK2 – biochemical, cherry pick 1, bead flow cytometry, dose response (AID 504500)
[2] = target: T1, Heat shock factor protein 1 (Mus musculus, UniProt P38532); experiment: HSF1 potentiators in luciferase reporter cells, confirmation, cell-based, NIH3T3, luminescence, dose retest (AID 435004); assay type: functional;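 further: stress induced by proteasome inhibitor MG132 added 30 min after compound; luciferase reporter driven by HSF1 response element in NIH3T3 cells; actives raise luminescence as potentiators of the MG132 stress response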
T1 sequence (P38532 whole entry): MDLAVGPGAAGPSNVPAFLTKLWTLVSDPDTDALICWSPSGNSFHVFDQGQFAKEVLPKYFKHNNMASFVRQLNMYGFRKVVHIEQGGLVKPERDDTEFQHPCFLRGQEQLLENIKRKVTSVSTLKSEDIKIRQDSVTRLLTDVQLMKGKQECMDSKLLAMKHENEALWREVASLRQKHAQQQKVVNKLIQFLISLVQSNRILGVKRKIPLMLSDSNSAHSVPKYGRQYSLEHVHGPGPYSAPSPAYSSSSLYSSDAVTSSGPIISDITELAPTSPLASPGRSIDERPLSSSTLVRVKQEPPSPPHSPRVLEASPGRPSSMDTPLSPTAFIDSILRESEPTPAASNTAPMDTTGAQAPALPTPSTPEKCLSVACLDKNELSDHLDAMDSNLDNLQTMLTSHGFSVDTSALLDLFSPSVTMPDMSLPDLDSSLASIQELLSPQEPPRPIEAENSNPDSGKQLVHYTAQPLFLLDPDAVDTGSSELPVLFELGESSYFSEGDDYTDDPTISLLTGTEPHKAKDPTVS

[3] = target: Tyrosine-protein phosphatase non-receptor type 11 (Homo sapiens, UniProt Q06124); experiment: SHP2 phosphatase inhibition, dose response, selectivity assay for STEP inhibitor project, biochemical (AID 602367); assay type: functional; conditions: read-out: IC50_Mean
[4] = target: Tyrosine-protein phosphatase non-receptor type 5 (Homo sapiens, UniProt P54829); experiment: STEP phosphatase inhibitors, confirmation, biochemical, fluorescence intensity, uHTS hits (AID 602372); assay type: functional; conditions: read-out: IC50_Mean
[5] = target: Dual specificity protein phosphatase 3 (Homo sapiens, UniProt P51452); experiment: VHR phosphatase inhibition, dose response, selectivity assay for STEP inhibitor project, biochemical (AID 602374); assay type: functional; conditions: read-out: IC50_Mean
[6] = NIH-3T3 fibroblast cytotoxicity, dose response, cytotoxicity control, cell-based, fluorescence, Alamar Blue, secondary assay (AID 2327); assay type: functional;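 further: NIH-3T3 mouse fibroblasts cultured with fluconazole at 8 µg/mL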
[7] = tested on: BJ; experiment: cytotoxicity toward BJ-TERT fibroblasts, dose response, cell-based, RAS-independent, luminescence (AID 1933); assay type: functional; conditions: Homo sapiens
[8] = cells; assay type: functional, cell-based
[9] = tested on: BJ; experiment: cells; assay type: functional, cell-based; conditions: Homo sapiens
[10] = C. albicans growth with fluconazole, confirmation, fluorescence, retest (AID 2467); assay type: functional, cell-based
[11] = cells; assay type: functional, cell-based; remark: listed apart in the source
[12] = target: Serine/threonine-protein phosphatase (Candida dubliniensis (strain CD36 / CBS 7987 / NCPF 3949 / NRRLY-17841) (Yeast), UniProt B9W6M3); experiment: calcineurin pathway inhibitors in yeast reporter, dose response, S. cerevisiae, CDRE-lacZ, luminescence, secondary (AID 2388); assay type: functional, cell-based;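 further: yeast reporter cells carrying a calcineurin-responsive lacZ construct stimulated with calcium chloride; luminescent beta-galactosidase reporter signal in whole cells rather than isolated phosphatase activity; potency for inhibition where a drop in reporter signal means calcineurin blockade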
[13] = tested on: BJ; experiment: cytotoxicity toward BJ-TERT-LT-ST fibroblasts, dose response, cell-based, RAS-independent, luminescence (AID 1935); assay type: functional; conditions: Homo sapiens;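 further: BJ fibroblasts immortalized with TERT plus LT and ST oncogenes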
[14] = cytotoxicity toward DRD oncogenic fibroblasts, dose response, cell-based, non-viral oncogenic, luminescence (AID 1934); assay type: functional; conditions: Homo sapiens
[15] = target: Exodeoxyribonuclease V (Escherichia coli (strain K12), UniProt P04993+P07648+P08394); experiment: E. coli RecBCD inhibitors, dose response, counter-screen for AddAB inhibitor project, absorbance, V66 E. coli, mutant T4 phage (AID 492957); assay type: functional, cell-based, Escherichia coli str. K-12 substr. MG1655
[16] = Counterscreen for AddAB inhibitors: absorbance-based bacterial cell-based high throughput dose response assay for inhibitors of bacterial viability. [Related pubchem assays (depositor defined):AID435030, AID449728, AID449731, AID488942, AID488955, AID488956]; assay type: functional
[17] = tested on: HEK293; experiment: inhibitors of LMP1-driven NF-kB reporter, dose response, cell-based, HEK293, luciferase, cherry-pick (AID 588343); assay type: functional, Homo sapiens; conditions: Homo sapiens, HEK293
[18] = target: T2, Latent membrane protein 1 (Human herpesvirus 4 (strain B95-8), UniProt P03230); experiment: TES1-eGFP NF-kB reporter inhibition versus Tet-On dsRED, dose response, selectivity assay for LMP1 NF-kB inhibitor project, imaging, HEK293T, dual-color eGFP/dsRED, cherry-picks (AID 588398); assay type: functional, cell-based
T2 sequence (P03230 whole entry): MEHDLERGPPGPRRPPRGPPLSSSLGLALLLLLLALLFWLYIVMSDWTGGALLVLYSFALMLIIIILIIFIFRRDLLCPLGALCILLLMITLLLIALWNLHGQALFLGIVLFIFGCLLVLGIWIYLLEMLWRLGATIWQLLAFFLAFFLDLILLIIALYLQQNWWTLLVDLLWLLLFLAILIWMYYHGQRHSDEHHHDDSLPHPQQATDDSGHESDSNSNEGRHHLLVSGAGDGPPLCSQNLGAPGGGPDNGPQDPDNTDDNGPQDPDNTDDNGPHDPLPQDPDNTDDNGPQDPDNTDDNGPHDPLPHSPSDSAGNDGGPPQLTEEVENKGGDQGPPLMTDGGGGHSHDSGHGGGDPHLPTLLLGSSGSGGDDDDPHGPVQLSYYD

[19] = tested on: INS1; experiment: beta cell apoptosis inhibitors, cytokine rescue, dose response, luminescence, retest (AID 449756); assay type: functional, cell-based; conditions: Rattus norvegicus;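 further: cell death triggered by IL-1 beta plus TNF-alpha plus IFN-gamma mixture; protective hits raise ATP signal compared with cytokine alone wells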
[20] = target: ATP-dependent molecular chaperone HSP82 (Candida albicans (strain WO-1) (Yeast), UniProt C4YTQ8); experiment: loss of DOC-induced GRE-beta-galactosidase reporter signal, dose response, Hsp90 inhibitor project, S. cerevisiae, luminescence (AID 2400); assay type: functional, cell-based;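 further: beta-galactosidase luminescence from glucocorticoid response element reporter as proxy for Hsp90 function; inhibitor potency where signal loss means Hsp90 inhibition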
[21] = Shn3 3'UTR reporter inhibitors, dose response, cell-based, Clone20 osteoblasts, firefly luciferase, cherry-picked (AID 624132); assay type: functional;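 further: firefly luciferase luminescence from reporter carrying the Shn3 3'UTR in osteoblasts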
[22] = HepG2 cell cytotoxicity, dose response, cytotoxicity control for Shn3 inhibitor project, CellTiter-Glo, cherry-picked (AID 624134); assay type: functional, cell-based
[23] = control 3'UTR Renilla luciferase suppression, dose response, counter-screen for Shn3 inhibitor project, cell-based, Clone20-Shn3RL, cherry-picked (AID 624133); assay type: functional
[24] = target: T3, RNA-binding protein pos-1 (Caenorhabditis elegans, UniProt G5EF15); experiment: inhibitors of POS-1/mex-3 RNA binding, dose response, biochemical, fluorescence polarization (AID 1964);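 further: purified POS-1 fused to maltose binding protein made in E. coli; potency of compounds blocking POS-1 binding to fluorescent RNA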
T3 sequence (G5EF15 whole entry): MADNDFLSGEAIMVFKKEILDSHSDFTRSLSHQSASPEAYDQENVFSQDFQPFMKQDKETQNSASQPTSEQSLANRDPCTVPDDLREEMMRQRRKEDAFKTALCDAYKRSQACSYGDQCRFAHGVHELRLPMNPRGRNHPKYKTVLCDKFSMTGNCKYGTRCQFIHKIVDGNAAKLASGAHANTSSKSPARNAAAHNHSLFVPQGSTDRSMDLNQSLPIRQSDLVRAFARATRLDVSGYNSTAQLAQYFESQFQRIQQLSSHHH

[25] = target: T4, Zinc finger protein mex-5 (Caenorhabditis elegans, UniProt Q9XUB2); experiment: MEX-5/TCR-2 RNA interaction inhibitors, dose response, biochemical, C. elegans, fluorescence polarization (AID 1960)
T4 sequence (Q9XUB2 whole entry): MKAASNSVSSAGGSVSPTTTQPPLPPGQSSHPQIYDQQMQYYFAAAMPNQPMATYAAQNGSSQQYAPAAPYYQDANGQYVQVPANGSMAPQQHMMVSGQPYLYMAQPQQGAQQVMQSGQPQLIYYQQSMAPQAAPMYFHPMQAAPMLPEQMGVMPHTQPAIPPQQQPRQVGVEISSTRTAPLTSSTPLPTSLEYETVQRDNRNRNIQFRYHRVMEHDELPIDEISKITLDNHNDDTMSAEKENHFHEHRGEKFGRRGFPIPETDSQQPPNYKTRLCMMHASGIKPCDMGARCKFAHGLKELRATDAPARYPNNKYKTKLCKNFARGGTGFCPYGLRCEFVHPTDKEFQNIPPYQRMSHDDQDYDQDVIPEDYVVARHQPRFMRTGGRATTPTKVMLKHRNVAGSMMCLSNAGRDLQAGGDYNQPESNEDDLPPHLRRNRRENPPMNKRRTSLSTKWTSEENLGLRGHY

[26] = target: T5, Endoribonuclease toxin MazF (Escherichia coli K-12, UniProt P0AE70); experiment: MazF toxin RNase activators, dose response, biochemical, fluorescence, single-stranded RNA substrate, uHTS hits (AID 588481); assay type: functional
[27] = target: T5, Endoribonuclease toxin MazF; experiment: fluorescent RNA oligo signal without MazF, dose response, counter-screen for MazEF activator project, biochemical, fluorescence, single-stranded RNase substrate (AID 588502); assay type: functional
[28] = tested on: Candida albicans; experiment: growth inhibition of resistant C. albicans, dose response, CaCi-8 strain, fluconazole, dry powder, set 4 (AID 488950); assay type: functional, organism-based
[29] = tested on: Candida albicans; experiment: fluconazole resistance reversal in C. albicans, dose response, CaCi-2 strain, Alamar Blue, dry powder, set 4 (AID 488943); assay type: functional, organism-based
[30] = tested on: Candida albicans; experiment: growth inhibition of azole-resistant C. albicans, dose response, CaCi-8 strain, Alamar Blue, dry powder, set 2 (AID 488909); assay type: functional, organism-based
[31] = target: Hexokinase-1 (Homo sapiens, UniProt P19367); experiment: SAR analysis of small molecule inhibitors of hexokinase domain containing I (HKDC1) in the hexokinase 1 selectivity assay. [Related pubchem assays (depositor defined):AID493160, AID493190]; assay type: functional
[32] = target: T6, Hexokinase HKDC1 (Homo sapiens, UniProt Q2TB90); experiment: SAR analysis of small molecule inhibitors of hexokinase domain containing I (HKDC1). [Related pubchem assays (depositor defined):AID493160, AID493190]; assay type: functional
T6 sequence (Q2TB90 whole entry): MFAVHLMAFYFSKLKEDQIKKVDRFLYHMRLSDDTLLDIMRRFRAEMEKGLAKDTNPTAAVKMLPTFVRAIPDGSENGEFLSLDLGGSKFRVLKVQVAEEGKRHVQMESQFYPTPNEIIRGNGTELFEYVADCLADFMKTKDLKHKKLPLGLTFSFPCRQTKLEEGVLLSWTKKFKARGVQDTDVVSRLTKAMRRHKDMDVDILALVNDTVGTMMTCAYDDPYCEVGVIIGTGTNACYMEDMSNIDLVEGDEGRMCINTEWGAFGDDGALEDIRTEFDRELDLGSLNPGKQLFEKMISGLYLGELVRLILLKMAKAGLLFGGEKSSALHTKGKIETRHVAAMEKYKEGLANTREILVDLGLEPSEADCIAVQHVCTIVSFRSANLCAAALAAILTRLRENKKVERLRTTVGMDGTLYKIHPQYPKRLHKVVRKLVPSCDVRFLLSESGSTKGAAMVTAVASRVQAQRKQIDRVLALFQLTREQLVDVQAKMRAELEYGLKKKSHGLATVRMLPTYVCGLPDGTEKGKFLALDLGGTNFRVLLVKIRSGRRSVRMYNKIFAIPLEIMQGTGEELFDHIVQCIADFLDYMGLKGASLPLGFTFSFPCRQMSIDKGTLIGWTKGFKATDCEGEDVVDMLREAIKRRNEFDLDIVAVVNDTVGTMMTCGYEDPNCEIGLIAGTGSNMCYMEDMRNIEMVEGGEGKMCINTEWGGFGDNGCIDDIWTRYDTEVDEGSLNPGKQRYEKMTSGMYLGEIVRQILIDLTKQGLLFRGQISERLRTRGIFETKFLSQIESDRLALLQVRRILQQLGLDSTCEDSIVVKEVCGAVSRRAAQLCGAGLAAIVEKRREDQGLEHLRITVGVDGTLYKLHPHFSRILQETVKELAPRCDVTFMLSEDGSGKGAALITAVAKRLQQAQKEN

T5 sequence (P0AE70 whole entry): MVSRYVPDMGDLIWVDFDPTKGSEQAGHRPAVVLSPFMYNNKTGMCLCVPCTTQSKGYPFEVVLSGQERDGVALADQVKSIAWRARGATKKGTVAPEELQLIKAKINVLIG
Sequence of Hexokinase-1 (P19367 whole entry, the tested form may be a part): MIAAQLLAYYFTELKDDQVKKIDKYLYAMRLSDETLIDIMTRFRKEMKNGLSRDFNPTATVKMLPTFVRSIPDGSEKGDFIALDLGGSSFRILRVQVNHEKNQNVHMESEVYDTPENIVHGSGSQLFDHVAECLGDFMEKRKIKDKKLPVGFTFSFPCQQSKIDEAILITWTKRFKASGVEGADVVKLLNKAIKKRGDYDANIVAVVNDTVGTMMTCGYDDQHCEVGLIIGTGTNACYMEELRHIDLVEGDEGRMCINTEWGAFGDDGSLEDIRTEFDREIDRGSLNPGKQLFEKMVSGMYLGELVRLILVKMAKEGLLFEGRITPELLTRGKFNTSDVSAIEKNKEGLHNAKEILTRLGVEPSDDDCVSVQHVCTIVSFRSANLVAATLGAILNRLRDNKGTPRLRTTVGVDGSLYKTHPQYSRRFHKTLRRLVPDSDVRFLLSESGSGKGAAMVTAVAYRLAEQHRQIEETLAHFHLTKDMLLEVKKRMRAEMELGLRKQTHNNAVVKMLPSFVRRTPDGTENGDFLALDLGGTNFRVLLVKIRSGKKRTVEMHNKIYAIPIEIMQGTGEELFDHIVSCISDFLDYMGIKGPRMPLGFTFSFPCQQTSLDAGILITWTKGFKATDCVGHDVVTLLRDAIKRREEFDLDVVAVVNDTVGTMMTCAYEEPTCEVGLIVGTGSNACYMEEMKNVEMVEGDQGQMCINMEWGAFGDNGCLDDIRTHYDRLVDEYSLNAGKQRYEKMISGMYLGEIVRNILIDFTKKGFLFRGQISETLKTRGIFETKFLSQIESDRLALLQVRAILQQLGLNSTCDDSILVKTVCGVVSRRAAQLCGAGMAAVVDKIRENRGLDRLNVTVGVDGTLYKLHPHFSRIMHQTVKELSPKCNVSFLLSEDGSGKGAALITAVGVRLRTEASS
Sequence of Tyrosine-protein phosphatase non-receptor type 5 (P54829 whole entry): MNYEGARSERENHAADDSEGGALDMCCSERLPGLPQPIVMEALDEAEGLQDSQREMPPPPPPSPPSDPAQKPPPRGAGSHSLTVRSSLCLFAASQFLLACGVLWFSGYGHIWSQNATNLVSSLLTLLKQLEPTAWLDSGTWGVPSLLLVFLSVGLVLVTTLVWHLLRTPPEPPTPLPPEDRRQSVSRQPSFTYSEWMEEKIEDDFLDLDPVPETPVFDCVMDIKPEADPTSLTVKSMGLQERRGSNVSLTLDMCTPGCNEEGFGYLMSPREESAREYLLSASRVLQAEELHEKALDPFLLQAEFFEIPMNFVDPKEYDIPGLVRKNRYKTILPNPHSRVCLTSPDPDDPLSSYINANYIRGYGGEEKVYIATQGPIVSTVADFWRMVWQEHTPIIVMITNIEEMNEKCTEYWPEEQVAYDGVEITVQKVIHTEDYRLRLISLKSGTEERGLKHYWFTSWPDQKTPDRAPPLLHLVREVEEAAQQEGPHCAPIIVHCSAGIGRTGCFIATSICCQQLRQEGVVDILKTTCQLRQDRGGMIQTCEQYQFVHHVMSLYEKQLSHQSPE
Sequence of ATP-dependent molecular chaperone HSP82 (C4YTQ8 whole entry): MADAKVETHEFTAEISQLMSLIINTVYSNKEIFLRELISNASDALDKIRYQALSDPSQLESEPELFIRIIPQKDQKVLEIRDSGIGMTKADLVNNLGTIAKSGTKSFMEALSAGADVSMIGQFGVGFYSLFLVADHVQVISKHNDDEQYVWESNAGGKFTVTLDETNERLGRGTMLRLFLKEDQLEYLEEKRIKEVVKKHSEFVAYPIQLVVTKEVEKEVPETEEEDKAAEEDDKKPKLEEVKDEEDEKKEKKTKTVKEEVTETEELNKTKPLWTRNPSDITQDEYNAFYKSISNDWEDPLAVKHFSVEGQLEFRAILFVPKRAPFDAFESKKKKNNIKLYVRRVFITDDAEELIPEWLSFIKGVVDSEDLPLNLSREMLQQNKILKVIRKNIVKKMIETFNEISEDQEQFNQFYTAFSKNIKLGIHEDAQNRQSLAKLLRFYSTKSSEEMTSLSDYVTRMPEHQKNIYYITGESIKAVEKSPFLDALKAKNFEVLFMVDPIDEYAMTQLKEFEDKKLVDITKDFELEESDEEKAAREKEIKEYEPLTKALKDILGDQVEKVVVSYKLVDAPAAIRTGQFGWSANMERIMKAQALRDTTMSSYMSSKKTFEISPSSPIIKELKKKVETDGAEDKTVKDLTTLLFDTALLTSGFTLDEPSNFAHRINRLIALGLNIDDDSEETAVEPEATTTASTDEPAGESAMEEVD
Sequence of Dual specificity protein phosphatase 3 (P51452 whole entry): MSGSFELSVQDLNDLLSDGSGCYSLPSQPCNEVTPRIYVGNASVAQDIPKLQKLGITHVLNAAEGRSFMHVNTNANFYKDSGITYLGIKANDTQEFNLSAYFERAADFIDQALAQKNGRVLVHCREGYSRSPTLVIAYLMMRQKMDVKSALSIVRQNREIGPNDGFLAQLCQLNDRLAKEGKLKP
Sequence of Beta-adrenergic receptor kinase 1 (P25098 whole entry): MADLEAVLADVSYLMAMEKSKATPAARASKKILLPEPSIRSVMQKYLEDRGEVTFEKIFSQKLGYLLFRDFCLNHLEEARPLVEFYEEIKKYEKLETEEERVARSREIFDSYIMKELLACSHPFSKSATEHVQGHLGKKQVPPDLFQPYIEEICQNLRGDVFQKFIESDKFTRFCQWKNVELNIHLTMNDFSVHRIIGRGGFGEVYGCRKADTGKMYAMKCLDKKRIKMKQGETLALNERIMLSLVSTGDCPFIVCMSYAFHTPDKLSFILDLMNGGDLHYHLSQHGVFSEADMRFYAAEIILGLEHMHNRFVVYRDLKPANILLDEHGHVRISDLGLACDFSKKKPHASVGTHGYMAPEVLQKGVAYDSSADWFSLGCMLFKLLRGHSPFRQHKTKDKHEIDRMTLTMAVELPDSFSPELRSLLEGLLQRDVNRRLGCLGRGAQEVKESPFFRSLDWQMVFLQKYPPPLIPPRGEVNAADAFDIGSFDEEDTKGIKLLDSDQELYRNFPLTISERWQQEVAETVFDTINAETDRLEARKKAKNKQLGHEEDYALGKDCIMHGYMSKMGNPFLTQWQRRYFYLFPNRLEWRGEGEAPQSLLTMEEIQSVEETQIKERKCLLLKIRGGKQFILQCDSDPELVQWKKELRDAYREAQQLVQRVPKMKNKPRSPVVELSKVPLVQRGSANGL
Sequence of Tyrosine-protein phosphatase non-receptor type 11 (Q06124 whole entry): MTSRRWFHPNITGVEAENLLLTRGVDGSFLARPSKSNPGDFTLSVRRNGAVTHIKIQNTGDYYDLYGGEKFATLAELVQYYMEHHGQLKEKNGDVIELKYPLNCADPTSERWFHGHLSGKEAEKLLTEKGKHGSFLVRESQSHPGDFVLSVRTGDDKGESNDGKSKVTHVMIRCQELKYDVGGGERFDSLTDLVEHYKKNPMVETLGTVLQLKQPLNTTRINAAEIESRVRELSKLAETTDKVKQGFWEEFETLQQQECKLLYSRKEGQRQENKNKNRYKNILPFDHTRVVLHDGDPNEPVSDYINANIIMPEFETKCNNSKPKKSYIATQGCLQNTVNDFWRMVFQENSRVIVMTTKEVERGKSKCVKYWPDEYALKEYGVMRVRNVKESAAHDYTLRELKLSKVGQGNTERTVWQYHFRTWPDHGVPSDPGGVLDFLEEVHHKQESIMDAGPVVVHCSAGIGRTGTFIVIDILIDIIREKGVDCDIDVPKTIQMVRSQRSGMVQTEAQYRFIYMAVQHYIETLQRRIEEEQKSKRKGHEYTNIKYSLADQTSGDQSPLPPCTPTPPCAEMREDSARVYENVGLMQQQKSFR
Sequence of Serine/threonine-protein phosphatase (B9W6M3 whole entry): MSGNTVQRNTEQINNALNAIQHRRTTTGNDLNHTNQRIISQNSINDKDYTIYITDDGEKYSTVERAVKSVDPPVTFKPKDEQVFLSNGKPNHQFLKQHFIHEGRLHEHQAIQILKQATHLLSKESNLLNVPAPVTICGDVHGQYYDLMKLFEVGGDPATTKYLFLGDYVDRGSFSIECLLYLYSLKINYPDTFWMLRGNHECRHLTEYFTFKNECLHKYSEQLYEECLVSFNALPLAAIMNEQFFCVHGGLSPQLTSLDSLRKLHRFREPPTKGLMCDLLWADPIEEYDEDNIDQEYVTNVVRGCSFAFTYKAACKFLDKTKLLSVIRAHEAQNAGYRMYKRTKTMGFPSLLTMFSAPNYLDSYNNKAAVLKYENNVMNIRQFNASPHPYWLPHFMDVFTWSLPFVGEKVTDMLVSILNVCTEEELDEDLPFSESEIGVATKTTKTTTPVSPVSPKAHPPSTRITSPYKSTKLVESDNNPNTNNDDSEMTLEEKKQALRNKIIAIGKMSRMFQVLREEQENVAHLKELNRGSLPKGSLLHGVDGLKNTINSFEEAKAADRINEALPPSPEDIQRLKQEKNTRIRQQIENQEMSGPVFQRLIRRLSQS

## CCOC(=O)CC(NS(=O)(=O)c1ccc2ncc(C(=O)O)c(O)c2c1)c1ccc(OCC)c(OC)c1 (configuration not stated)
[1]
  EC50: 3.62 µM (active)
[2]
  EC50: > 260 µM (inactive)
[3]
  IC50: 1.53 µM (active)
[4]
  IC50: 46.3 µM (inactive)
[5]
  IC50: 3 µM (active)

## Oc1cccc(C(Nc2nccs2)c2ccc3cccnc3c2O)c1 (configuration not stated)
[6]
  EC50: 20.1 µM (inconclusive)
[7]
  EC50: 9.83 µM (active)
[8]
  EC50: 13.2 µM (active)
[9]
  EC50: 8.06 µM (active)
[10]
  EC50: 0.796 µM (active)
[11]
  EC50: > 350 µM (not active)
[12]
  EC50: > 180 µM (inactive)
[13]
  EC50: 6.31 µM (active)
[14]
  EC50: 6.12 µM (active)
[15]
  IC50: > 119 µM (inactive)
[16]
  IC50: 107 µM (inactive)
[17]
  AC50: 14 µM (active)
[18]
  AC50: 8.97 µM (active)
[19]
  AC50: 0.95 µM (active)
[20]
  EC50: > 160 µM (inactive)
[21]
  AC50: 1.67 µM (active)
[22]
  AC50: 5.04 µM (active)
[23]
  AC50: 1.87 µM (active)

## CC(=O)N1CCN(c2ccc(N/C=C3\C(=O)NC(=O)N(Cc4ccccc4)C3=O)cc2)CC1
[24]
  EC50: > 300 µM (not active)
[25]
  EC50: 83.1 µM (active)
[26]
  EC50: > 99 µM (inactive)
[27]
  EC50: 19 µM (active)

## O=C(c1ccccc1Cl)N1CCN(c2ccnc3cc(Cl)ccc23)CC1
[28]
  AC50: 7.36 µM (active)
[29]
  AC50: 4.8 µM (active)
[30]
  AC50: 25.2 µM (active)

## O=C(CSc1ncccn1)Nc1cccc(S(=O)(=O)N2CCOCC2)c1
[31]
  IC50: > 80 µM (inactive)
[32]
  IC50: > 80 µM (inactive)
